In PubChem BioAssay (NCI) one finds GI50 and TGI data, which are given here for twelve compounds.

Some test systems named below: IGROV1 ovarian; SF-268 CNS; SF-539 CNS; T-47D breast; SK-MEL-5 melanoma; OVCAR-3 ovarian; COLO 205 colon; RPMI-8226 leukemia; NCI-H226 lung; MOLT-4 leukemia.
Holding throughout (test): inhibition of tumour cell growth, NCI panel, 48 h

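Tested at 5 concentrations; 48 h exposure; 96-well plates; endpoints linearly interpolated, else capped at highest concentration. GI50 = concentration required for 50% inhibition of growth. TGI: concentration producing complete growth inhibition.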 Some results are limits rather than exact numbers.

For the compound `Cc1cc2cccnc2c2ncccc12`, the GI50 in the assay on IGROV1 ovarian was 1.18 µM; in the assay on SF-268 CNS it was 0.739 µM; with SF-539 CNS it was 1.83 µM; in the assay on T-47D breast it was 3.32 µM; in the assay with SK-MEL-5 melanoma, 1.3 µM; in the assay on OVCAR-3 ovarian, 1.75 µM. Further, the GI50 in the assay with COLO 205 colon is 3.4 µM; in the assay with RPMI-8226 leukemia it was 2.43 µM; in the assay on NCI-H226 lung, 1.33 µM. Also, the TGI in the assay with IGROV1 ovarian amounted to 6.44 µM; in the assay on SF-268 CNS, 27.7 µM; in the assay with SF-539 CNS it was 10.8 µM; in the assay with T-47D breast, 21.3 µM; with SK-MEL-5 melanoma it was 10.7 µM; in the assay with OVCAR-3 ovarian, 10.3 µM. In addition, the TGI in the assay with COLO 205 colon stood at 11.5 µM; in the assay on RPMI-8226 leukemia, 9.07 µM; in the assay on NCI-H226 lung, 8.81 µM.

For the compound `O=C(Cn1c(=O)c(-c2ccccc2)nc2ccccc21)c1ccc(Cl)cc1`, the GI50 with IGROV1 ovarian is 63.3 µM; with SF-268 CNS it was over 100 µM; with T-47D breast, over 100 µM; with SK-MEL-5 melanoma it was over 100 µM; with OVCAR-3 ovarian it was 46.6 µM; in the assay with MOLT-4 leukemia, over 100 µM. The GI50 was over 100 µM with COLO 205 colon, 57.8 µM in the assay on RPMI-8226 leukemia and 53.5 µM in the assay with NCI-H226 lung. In addition, the TGI in the assay with IGROV1 ovarian, in the assay with SF-268 CNS, in the assay with T-47D breast, in the assay on SK-MEL-5 melanoma, with OVCAR-3 ovarian and in the assay on MOLT-4 leukemia was over 100 µM throughout. Moreover, the TGI in the assay on COLO 205 colon, in the assay with RPMI-8226 leukemia and with NCI-H226 lung was over 100 µM each time.

For the compound `CN1C(OCc2ccccc2)c2c(ccc3c2OCO3)C2C=Cc3cc4c(cc3C21)OCO4` (configuration not stated), the TGI with IGROV1 ovarian turned out to be 2.09 µM; in the assay on SF-268 CNS, 1.58 µM; in the assay on SF-539 CNS, 2.99 µM; in the assay on SK-MEL-5 melanoma, 2.58 µM; in the assay with OVCAR-3 ovarian, 1.97 µM; in the assay with MOLT-4 leukemia, 0.678 µM. Also, the TGI was 2.2 µM with COLO 205 colon, 0.584 µM with RPMI-8226 leukemia and 2.8 µM in the assay on NCI-H226 lung.

In the case of `CC(=O)Nc1ccc(-c2c3nc(c(-c4cc5ccccc5[n+](C)c4)c4ccc([nH]4)c(-c4ccc(NC(C)=O)cc4)c4nc(c(-c5cc6ccccc6[n+](C)c5)c5ccc2[nH]5)C=C4)C=C3)cc1`, the GI50 in the assay on IGROV1 ovarian is 13.7 µM; in the assay on SF-268 CNS it was 35 µM; in the assay on T-47D breast, 8.6 µM; in the assay with SK-MEL-5 melanoma, 21.8 µM; with OVCAR-3 ovarian, 2.37 µM; in the assay on MOLT-4 leukemia it was over 50 µM. The GI50 is 12.9 µM in the assay with COLO 205 colon and 21.6 µM in the assay with RPMI-8226 leukemia. In addition, the TGI is over 50 µM with IGROV1 ovarian; over 50 µM in the assay with SF-268 CNS; 29.6 µM with T-47D breast; over 50 µM in the assay with SK-MEL-5 melanoma; 12.9 µM in the assay with OVCAR-3 ovarian; over 50 µM with MOLT-4 leukemia. Moreover, the TGI in the assay with COLO 205 colon was 26.7 µM; in the assay on RPMI-8226 leukemia, over 50 µM.

In the case of `CC1(C)CCC[C@@]2(C)C1C[C@H](O)[C@@]1(C)O[C@@](C)([C@H](O)CO)CCC21` (some centres not stated), the TGI with IGROV1 ovarian was 70.6 µM; in the assay on SF-268 CNS it was over 100 µM; with SF-539 CNS, over 100 µM; with SK-MEL-5 melanoma, 44 µM; in the assay with OVCAR-3 ovarian, over 100 µM; with MOLT-4 leukemia it was 62 µM. For the same compound, the TGI was 56.5 µM with COLO 205 colon, 45.2 µM in the assay with RPMI-8226 leukemia and over 100 µM in the assay on NCI-H226 lung.

Take `COc1ccc(CN2C(=O)C(Cc3cc(OC)c(OC)c(C)c3OC)NC(=O)/C2=C/c2cc(OC)c(OC)c(C)c2OC)cc1` (configuration not stated): the TGI in the assay on IGROV1 ovarian is over 100 µM; with SF-268 CNS it was over 100 µM; with SF-539 CNS it was over 100 µM; in the assay on SK-MEL-5 melanoma, 34.5 µM; with OVCAR-3 ovarian, 82.2 µM; with MOLT-4 leukemia, 60.6 µM. The figures for the TGI in the assay with COLO 205 colon, in the assay with RPMI-8226 leukemia and with NCI-H226 lung were 47.4 µM, 70.2 µM and 60.2 µM, respectively.

For the compound `CC(N=C(N)N)C(=O)O` (configuration not stated), the TGI with IGROV1 ovarian, in the assay on SF-268 CNS, in the assay on T-47D breast, with SK-MEL-5 melanoma, in the assay with OVCAR-3 ovarian and in the assay on MOLT-4 leukemia was over 100 µM each time. For the same compound, the TGI in the assay with COLO 205 colon, in the assay on RPMI-8226 leukemia and with NCI-H226 lung was over 100 µM each time.

For the compound `Cc1ccc(NC(=O)CC/C(CC(=O)C(C)(C)C)=N/NC(=O)C(N)=O)cc1C`, the TGI with IGROV1 ovarian, in the assay on SF-268 CNS, in the assay with SF-539 CNS, in the assay with SK-MEL-5 melanoma, in the assay with OVCAR-3 ovarian and in the assay with MOLT-4 leukemia was over 100 µM throughout. Further, the TGI in the assay on COLO 205 colon, in the assay on RPMI-8226 leukemia and in the assay with NCI-H226 lung was over 100 µM each time.

As for `COc1cc2c(c(OC)c1OC)C(=O)CC(c1cccc(NC(=O)c3ccc(Br)cc3)c1)O2` (configuration not stated), the GI50 in the assay with IGROV1 ovarian is 3.05 µM; in the assay with SF-268 CNS, 2.57 µM; in the assay with SF-539 CNS, 3.86 µM; in the assay on T-47D breast, 1.41 µM; in the assay with SK-MEL-5 melanoma, 1.62 µM; in the assay with MOLT-4 leukemia, 1.54 µM. For the same compound, the GI50 in the assay with COLO 205 colon was 3.17 µM; in the assay with RPMI-8226 leukemia, 1.44 µM; with NCI-H226 lung, 3 µM. The TGI in the assay with IGROV1 ovarian is over 100 µM; in the assay with SF-268 CNS, over 100 µM; in the assay with SF-539 CNS, over 100 µM; in the assay with T-47D breast, 5.98 µM; with SK-MEL-5 melanoma, 3.32 µM; with MOLT-4 leukemia, 4.19 µM. Moreover, the TGI in the assay on COLO 205 colon was over 100 µM; in the assay on RPMI-8226 leukemia, 3.93 µM; with NCI-H226 lung, over 100 µM.

As for `Nc1ncnc2c1ncn2C1OC(CSC(F)(F)F)C(O)C1O` (configuration not stated), the TGI in the assay with IGROV1 ovarian, in the assay on SF-268 CNS, in the assay with SF-539 CNS, in the assay with SK-MEL-5 melanoma, with OVCAR-3 ovarian and in the assay with MOLT-4 leukemia was over 100 µM throughout. For the same compound, the TGI in the assay on COLO 205 colon, in the assay on RPMI-8226 leukemia and with NCI-H226 lung was over 100 µM in each case.

For `CC1(C)C(c2ccccc2)=NN(O)c2ccccc21`, the TGI in the assay on IGROV1 ovarian, in the assay with SF-268 CNS, with SF-539 CNS, in the assay on SK-MEL-5 melanoma, in the assay on OVCAR-3 ovarian and in the assay with MOLT-4 leukemia was over 100 µM throughout. For the same compound, the TGI with COLO 205 colon, in the assay on RPMI-8226 leukemia and in the assay with NCI-H226 lung was over 100 µM each time.

In the case of `N#CNC(N)=NCCO`, the TGI in the assay with IGROV1 ovarian, in the assay on SF-268 CNS, in the assay on SF-539 CNS, in the assay on SK-MEL-5 melanoma, in the assay with OVCAR-3 ovarian and in the assay on MOLT-4 leukemia was over 100 µM throughout. In addition, the TGI with COLO 205 colon, with RPMI-8226 leukemia and in the assay with NCI-H226 lung was over 100 µM in each case.
